Source: patent US11234945B2, “Wound healing composition” (AGENCY FOR SCIENCE, TECHNOLOGY AND RESEARCH, priority 2016, dated 2022)
Entries after “also recorded” stand apart in the source; their conditions may differ.

Assays:
[1] = tested on: AMD1; assay: AMD1 up-regulation post scratch (immunofluorescence, western blot); type: cell-based, human; details: combined pre-treatment: 1 μM Tg 24 hours and 2 mM EGTA 1 hour; 6 hours post scratch
Protocol: (§1) It was then sought to determine if the up-regulation of AMD1 at the wound-edge was dependent on the wound-induced calcium wave. Human keratinocytes were labelled with the Ca^2+ probe Fluo-4 for 30 minutes prior to scratching to mimic a wound response. […] To assess the impact of a reduced calcium wave on up-regulation of AMD1, cells were pre-treated for 24 hours with 1 μM thapsigargin (Tg) and for 1 hour with 2 mM EGTA prior to scratch to deplete internal calcium stores and extracellular calcium, respectively.
(§2) Keratinocytes were seeded in glass-bottom 35-mm^2 dishes and cultured to full confluency in cell culture media. To deplete intracellular and extracellular Ca^2+ sources, cells were treated with 1 μM thapsigargin (Tg) (Sigma-Aldrich) for 24 hours and 2 mM ethylene glycol tetraacetic acid (EGTA, Sigma-Aldrich) for 1 hour prior to scratch. For Ca^2+ flux imaging, cells were incubated with Fluo-4,AM (Life Technologies; Thermo Fisher Scientific) and imaged with an automated confocal microscope (Spinning disk 3D-FRAP; Nikon Ti) at 0.2 second intervals for 5 minutes. Image analysis was performed using ImageJ software.

[2] = tested on: N/TERT-1 keratinocytes; assay: In vitro scratch cell migration assay; type: cell-based, human; details: for cell migration / closure of scratch wound: control keratinocytes, 5 μM added 48 h prior to scratch, Incucyte wound width
Protocol: (§3) Human immortalized keratinocytes (Dickson et al., 2000), N/TERT-1 were obtained and cultured in keratinocyte serum-free media (K-SFM; Life Technologies; Thermo Fisher Scientific) supplemented with 25 μg/ml bovine pituitary extract (BPE), 0.2 ng/ml epidermal growth factor (EGF), and 0.3 mM CaCl2, as previously described (Rheinwald et al., 2002). To culture cells to 100% confluence for scratch assays, N/TERT-1 cells were first cultured to 50% confluence in supplemented K-SFM growth medium and then switched to a media with a 1:1 ratio mixture of supplemented K-SFM and DF-K (a mixture of calcium free, glutamine free DMEM (Hyclone; GE Healthcare) with Ham's F-12/GlutaMAX (Gibco; Life Technologies; Thermo Fisher Scientific) at 1:1 (vol/vol) supplemented with 5 μg/ml BPE, 0.2 ng/ml EGF, and 1.5 mM L-glutamine (Life Technologies; Thermo Fisher Scientific)) until 100% confluent. Human HEK293T cells (Dharmacon; GE Healthcare) were used for lentiviral production as the packaging cell line and cultured in high glucose DMEM (Hyclone; GE Healthcare) with 10% fetal calf serum. All cells were grown in a humidified incubator with 5% CO2 at 37° C.
In Vitro Scratch Cell Migration Assay
Confluent keratinocytes on ImageLock 96-well microplates (Essen BioScience, Inc) were scratched using a 96-pin wound maker (Essen BioScience, Inc) to create homogeneous, 700-800-μm wide scratch wounds in cell monolayers. Scratched cells were imaged using a real-time cell imaging system, IncuCyte, (Essen BioScience, Inc) to monitor cell migration. Putrescine, spermidine, or spermine (5 μM, Sigma-Aldrich) were added to cells and incubated for 48 h prior to scratch. For analysis of protein and RNA expression in migrating cells, keratinocytes were cultured to full confluency in a 6-well culture dish (Corning Costar) and scratched with the large end of a 1-mL pipette tip. At specific time points, the cells were either harvested in lysis buffer (150 mM sodium chloride, 1% (v/v) Triton X-100, 0.5% sodium deoxycholate, 1% (v/v) sodium dodecyl sulfate, 50 mM Tris-HCl, 1% (v/v) Nonidet P-40 (NP-40), 0.1 mM phenylmethylsulfonyl fluoride (PMSF), 5 mM EDTA, and 1% (v/v) protease and phosphatase inhibitor cocktail) for western blot or Trizol reagent (Life Technologies; Thermo Fisher Scientific) for RNA analysis.

[3] = tested on: scratch-induced calcium wave in keratinocytes; assay: Calcium wave imaging after scratch (Fluo-4); type: cell-based, human; details: combined pre-treatment: 1 μM Tg 24 hours and 2 mM EGTA 1 hour prior to scratch
Protocol: as §1, §2

[4] = tested on: sh-AMD1 keratinocytes; details: supplementation in cell culture media, listed as Spermine
Protocol: as §3
Confluent keratinocytes on ImageLock 96-well microplates (Essen BioScience, Inc) were scratched using a 96-pin wound maker (Essen BioScience, Inc) to create homogeneous, 700-800-μm wide scratch wounds in cell monolayers. […]

[5] = tested on: human ex vivo wounds; assay: Human ex vivo excisional skin wounds, epithelial tongue length; type: cell-based; details: 500 μM topically every 24 hours for 3 days; examined after 72 hours; PBS control
Excerpt: Human skin samples were sourced from Dr T. C. Lim at the Yong Loo Lin School of Medicine, National University of Singapore. Written consent from participants was obtained in all cases. The study was done in accordance with the declaration of Helsinki and was approved by a local scientific ethics review board. The skin was further dissected into 6-mm cubes or circles. Excisional skin wounds of approximately 3 to 4 mm were made with surgical scissors. The ex vivo wounded skin explants were cultured at the air-liquid interface and treated topically with 500 μM of putrescine, spermidine, spermine or 1× phosphate-buffered saline (PBS) every 24 hours for 3 days. Non-wounded skin, day 0- and day 3-wounded biopsies were bisected, with half snap-frozen in Optimal Cutting Temperature Compound (OCT) and the other half fixed in 10% buffered formalin saline and embedded in paraffin for histological analysis.
Histological sections were prepared from wound tissue embedded in paraffin or snap-frozen in OCT. […] Images were acquired using a fluorescence microscope (Zeiss AxioImager Z1; Carl Zeiss). […]

[6] = tested on: intestinal epithelial cell; details: rodents, cited from earlier work

Structure (SMILES): O=C(O)CN(CCN(CC(=O)O)CC(=O)O)CC(=O)O [EDTA]
- AMD1 up-regulation in scratched cells [1]: completely abrogates AMD1 protein up-regulation

Structure (SMILES): CCC(/C=N/N=C(N)N)=N\N=C(N)N [EGBG, reference compound]
- cell migration after AMD1 inhibitor ([2]; data not shown, concentration not given): resulted in a similar delay in cell migration

Structure (SMILES): C/C=C(/C)C(=O)O[C@H]1C(C)=C2[C@H]([C@@H]1OC(=O)CCCCCCC)[C@@](C)(OC(C)=O)C[C@H](OC(=O)CCC)[C@@]1(O)[C@H]2OC(=O)[C@@]1(C)O [thapsigargin]
- AMD1 up-regulation in scratched cells [1]: completely abrogated; also recorded: completely abrogates AMD1 protein up-regulation
- propagation of calcium wave upon scratch [3]: effectively prevented the calcium wave

Structure (SMILES): NCCCNCCCCNCCCN [spermine, 1,4-butanediamine, N,N′-bis(3-aminopropyl)]
- restoration of impaired cell migration in AMD1-knockdown keratinocytes [4]: restores impaired cell migration in sh-AMD1 keratinocytes
- cell migration / closure of scratch wound [2]: promoted scratch wound closure in the control cells; also recorded: sufficient to drive increased cell migration
- cell migration / closure of scratch wound ([2]; listed as Spermine): promotes the closure of scratch wounds in keratinocytes
- rescue of EGBG-induced delay in cell migration ([2]; keratinocytes treated with EGBG, data not shown): similarly rescued by the addition of spermine
- epithelial tongue migration / wound repair [5]: promoted a striking improvement in epithelial tongue migration; also recorded: promote wound repair of excisional human skin wounds

Structure (SMILES): NCCCC(N)(C(=O)O)C(F)F (racemic) [DFMO, (RS)-2,5-diamino-2-(difluoromethyl)pentanoic acid]
- intestinal epithelial cell migration and proliferation ([6]; ODC1 inhibition): prevents intestinal epithelial cell migration and proliferation

Structure (SMILES): O=C(O)CN(CCOCCOCCN(CC(=O)O)CC(=O)O)CC(=O)O [EGTA, ethylene glycol tetraacetic acid]
- AMD1 up-regulation in scratched cells [1]: completely abrogated
- propagation of calcium wave upon scratch [3]: effectively prevented the calcium wave

Structure (SMILES): NCCCCNCCCN [spermidine, 1,4-butanediamine, N-(3-aminopropyl)]
- epithelial tongue migration / wound repair [5]: promoted a striking improvement in epithelial tongue migration; also recorded: promote wound repair of excisional human skin wounds

Structure (SMILES): NCCCCN [putrescine, butane-1,4-diamine, reference compound]
- rescue of DFMO effect on intestinal epithelial cell migration and proliferation ([6]; supplementation after DFMO): can be rescued through supplementation with putrescine
- cell migration / closure of scratch wound [2]: significantly impedes cell migration
- cell migration / closure of scratch wound ([2]; listed as Putrescine): caused an inhibition of keratinocyte migration and a delay in closure of the scratch wound
